Assays:
Assay in all cases: Kinase inhibitor library screening, PrestoBlue cell viability, 1 or 10 μM, 72 h
A375 cells (parental) = test system: A375 cells (parental)
[1] = test system: A375-XP cells (Vemurafenib-resistant)
[2] = test system: IGR37-XP cells (Vemurafenib-resistant)
[3] = test system: IGR37-GP cells (Dabrafenib-resistant)
[4] = test system: 501Mel-GP cells (Dabrafenib-resistant); conditions: 72 h
[5] = test system: 501Mel-XP cells (Vemurafenib-resistant); conditions: 72 h
501Mel cells (parental) = conditions: 72 h
In short: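 Sensitive parental cells and their resistant derivatives were exposed to library compounds for 72 h. Values represent viability as a percentage of untreated cells.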

IGR37 cells (parental) = test system: IGR37 cells (parental)
[6] = test system: A375-GP cells (Dabrafenib-resistant)

Cn1cc(-c2ccc3nnc(C(F)(F)c4ccc5ncccc5c4)n3n2)cn1 [JNJ-38877605]
cell viability (kinase inhibitor library screening) (A375 cells (parental); A375 Parental, 10μΜ, 72 h): 97.6%
cell viability (kinase inhibitor library screening) (A375 cells (parental); A375 Parental, 1μΜ, 72 h): 99.7%
cell viability (kinase inhibitor library screening) ([1]; A375 XP, 1μΜ, 72 h): 105.2%
cell viability (kinase inhibitor library screening) ([1]; A375 XP, 10μΜ, 72 h): 100.0%
cell viability (kinase inhibitor library screening) ([2]; IGR37 XP, 1μΜ, 72 h): 96.1%
cell viability (kinase inhibitor library screening) ([2]; IGR37 XP, 10μΜ, 72 h): 62.2%
cell viability (kinase inhibitor library screening) ([3]; IGR37 GP, 1μΜ, 72 h): 102.6%
cell viability (kinase inhibitor library screening) ([3]; IGR37 GP, 10μΜ, 72 h): 87.5%
cell viability (kinase inhibitor library screening) ([4]; 501Mel GP, 1μΜ): 86.8%
cell viability (kinase inhibitor library screening) ([4]; 501Mel GP, 10μΜ): 64.7%
cell viability (kinase inhibitor library screening) ([5]; 501Mel XP, 1μΜ): 70.9%
cell viability (kinase inhibitor library screening) ([5]; 501Mel XP, 10μΜ): 57.1%
cell viability (kinase inhibitor library screening) (501Mel cells (parental); 501Mel Parental, 1μΜ): 97.8%
cell viability (kinase inhibitor library screening) (501Mel cells (parental); 501Mel Parental, 10μΜ): 86.4%
cell viability (kinase inhibitor library screening) (IGR37 cells (parental); IGR37 Parental, 1μΜ, 72 h): 106.0%
cell viability (kinase inhibitor library screening) (IGR37 cells (parental); IGR37 Parental, 10μΜ, 72 h): 87.1%
cell viability (kinase inhibitor library screening) ([6]; A375 GP, 10μΜ, 72 h): 97.0%

CCN(CCO)CCCOc1ccc2c(Nc3cc(CC(=O)Nc4cccc(F)c4)[nH]n3)ncnc2c1 [Barasertib (AZD1152-HQPA)]
cell viability (kinase inhibitor library screening) (A375 cells (parental); A375 Parental, 10μΜ, 72 h): 59.0%
cell viability (kinase inhibitor library screening) (A375 cells (parental); A375 Parental, 1μΜ, 72 h): 59.4%
cell viability (kinase inhibitor library screening) ([1]; A375 XP, 1μΜ, 72 h): 66.2%
cell viability (kinase inhibitor library screening) ([1]; A375 XP, 10μΜ, 72 h): 68.8%
cell viability (kinase inhibitor library screening) ([2]; IGR37 XP, 1μΜ, 72 h): 98.0%
cell viability (kinase inhibitor library screening) ([2]; IGR37 XP, 10μΜ, 72 h): 51.5%
cell viability (kinase inhibitor library screening) ([3]; IGR37 GP, 1μΜ, 72 h): 98.3%
cell viability (kinase inhibitor library screening) ([3]; IGR37 GP, 10μΜ, 72 h): 91.0%
cell viability (kinase inhibitor library screening) ([4]; 501Mel GP, 1μΜ): 99.2%
cell viability (kinase inhibitor library screening) ([4]; 501Mel GP, 10μΜ): 86.2%
cell viability (kinase inhibitor library screening) ([5]; 501Mel XP, 1μΜ): 90.3%
cell viability (kinase inhibitor library screening) ([5]; 501Mel XP, 10μΜ): 81.8%
cell viability (kinase inhibitor library screening) (501Mel cells (parental); 501Mel Parental, 1μΜ): 96.3%
cell viability (kinase inhibitor library screening) (501Mel cells (parental); 501Mel Parental, 10μΜ): 92.5%
cell viability (kinase inhibitor library screening) (IGR37 cells (parental); IGR37 Parental, 1μΜ, 72 h): 93.5%
cell viability (kinase inhibitor library screening) (IGR37 cells (parental); IGR37 Parental, 10μΜ, 72 h): 81.6%
cell viability (kinase inhibitor library screening) ([6]; A375 GP, 1μΜ, 72 h): 57.9%
cell viability (kinase inhibitor library screening) ([6]; A375 GP, 10μΜ, 72 h): 61.1%

CC(C)(C)c1cc(NC(=O)Nc2ccc(-c3cn4c(n3)sc3cc(OCCN5CCOCC5)ccc34)cc2)no1 [Quizartinib (AC220)]
viability at 1 µM (A375 cells (parental); Homo sapiens, A-375, 72 h, read-out: cell viability, A375 Parental, 1μΜ): 104%
viability at 10 µM (A375 cells (parental); Homo sapiens, A-375, 72 h, read-out: cell viability, A375 Parental, 10μΜ): 96.3%
viability at 1 µM ([1]; Homo sapiens, A-375, 72 h, read-out: cell viability, A375 XP, 1μΜ): 108%
viability at 10 µM ([1]; Homo sapiens, A-375, 72 h, read-out: cell viability, A375 XP, 10μΜ): 96.3%
viability at 1 µM ([2]; Homo sapiens, IGR-37, 72 h, read-out: cell viability, IGR37 XP, 1μΜ): 43.9%
viability at 10 µM ([2]; Homo sapiens, IGR-37, 72 h, read-out: cell viability, IGR37 XP, 10μΜ): 7.2%
viability at 1 µM ([3]; Homo sapiens, IGR-37, 72 h, read-out: cell viability, IGR37 GP, 1μΜ): 67.8%
viability at 10 µM ([3]; Homo sapiens, IGR-37, 72 h, read-out: cell viability, IGR37 GP, 10μΜ): 28.8%
viability at 1 µM ([4]; Homo sapiens, read-out: cell viability, 501Mel GP, 1μΜ): 109%
viability at 10 µM ([4]; Homo sapiens, read-out: cell viability, 501Mel GP, 10μΜ): 93%
viability at 1 µM ([5]; Homo sapiens, read-out: cell viability, 501Mel XP, 1μΜ): 94.6%
viability at 10 µM ([5]; Homo sapiens, read-out: cell viability, 501Mel XP, 10μΜ): 80.5%
viability at 1 µM (501Mel cells (parental); Homo sapiens, read-out: cell viability, 501Mel Parental, 1μΜ): 95.1%
viability at 10 µM (501Mel cells (parental); Homo sapiens, read-out: cell viability, 501Mel Parental, 10μΜ): 89.6%
viability at 1 µM (IGR37 cells (parental); Homo sapiens, IGR-37, 72 h, read-out: cell viability, IGR37 Parental, 1μΜ): 97.3%
viability at 10 µM (IGR37 cells (parental); Homo sapiens, IGR-37, 72 h, read-out: cell viability, IGR37 Parental, 10μΜ): 102%
viability at 1 µM ([6]; Homo sapiens, A-375, 72 h, read-out: cell viability, A375 GP, 1μΜ): 99.4%
viability at 10 µM ([6]; Homo sapiens, A-375, 72 h, read-out: cell viability, A375 GP, 10μΜ): 88.8%

Cc1c(CN2CCN(C(=O)[C@H](C)O)CC2)sc2c(N3CCOCC3)nc(-c3cnc(N)nc3)nc12 [GDC-0980 (RG7422)]
Cell viability in kinase inhibitor library screening, A375 Parental, 10μΜ (A375 cells (parental); A375 Parental, 10μΜ, 72 h): 2.2
Cell viability in kinase inhibitor library screening, A375 Parental, 1μΜ (A375 cells (parental); A375 Parental, 1μΜ, 72 h): 22.3
Cell viability in kinase inhibitor library screening, A375 XP, 1μΜ ([1]; A375 XP, 1μΜ, 72 h): 31.2
Cell viability in kinase inhibitor library screening, A375 XP, 10μΜ ([1]; A375 XP, 10μΜ, 72 h): 3.3
Cell viability in kinase inhibitor library screening, IGR37 XP, 10μΜ ([2]; IGR37 XP, 10μΜ, 72 h): 1.5%
Cell viability in kinase inhibitor library screening, IGR37 XP, 1μΜ ([2]; IGR37 XP, 1μΜ, 72 h, in %): 21.6
Cell viability in kinase inhibitor library screening, IGR37 GP, 10μΜ ([3]; IGR37 GP, 10μΜ, 72 h): 2.9%
Cell viability in kinase inhibitor library screening, IGR37 GP, 1μΜ ([3]; IGR37 GP, 1μΜ, 72 h, in %): 58.6
Cell viability in kinase inhibitor library screening, 501Mel GP, 1μΜ ([4]; 501Mel GP, 1μΜ, in %): 21.4
Cell viability in kinase inhibitor library screening, 501Mel GP, 10μΜ ([4]; 501Mel GP, 10μΜ, in %): 5.1
Cell viability in kinase inhibitor library screening, 501Mel XP, 1μΜ ([5]; 501Mel XP, 1μΜ, in %): 15.9
Cell viability in kinase inhibitor library screening, 501Mel XP, 10μΜ ([5]; 501Mel XP, 10μΜ, in %): 0.8
Cell viability in kinase inhibitor library screening, 501Mel Parental, 1μΜ (501Mel cells (parental); 501Mel Parental, 1μΜ, in %): 19.3
Cell viability in kinase inhibitor library screening, 501Mel Parental, 10μΜ (501Mel cells (parental); 501Mel Parental, 10μΜ, in %): 1.0
Cell viability in kinase inhibitor library screening, IGR37 Parental, 1μΜ (IGR37 cells (parental); IGR37 Parental, 1μΜ, 72 h, in %): 35.3
Cell viability in kinase inhibitor library screening, IGR37 Parental, 10μΜ (IGR37 cells (parental); IGR37 Parental, 10μΜ, 72 h, in %): 2.0
Cell viability in kinase inhibitor library screening, A375 GP, 1μΜ ([6]; A375 GP, 1μΜ, 72 h): 33.1
Cell viability in kinase inhibitor library screening, A375 GP, 10μΜ ([6]; A375 GP, 10μΜ, 72 h): 4.0

Source: article PMC6364417, “Kinase inhibitor library screening identifies synergistic drug combinations effective in sensitive and resistant melanoma cells” (Journal of Experimental & Clinical Cancer Research : CR, 2019)
